In publication PMC5756575, “In Vitro Biotransformation, Safety, and Chemopreventive Action of Novel 8-Methoxy-Purine-2,6-Dione Derivatives” (Applied Biochemistry and Biotechnology, 2017):
Like-named read-outs stand apart in the source and are kept apart here.

Key:
Vibrio harveyi BB7X [1] = experiment: Vibrio harveyi antimutagenicity assay against NQNO, BB7X; type: cell-based; conditions: compound 40 ng/mL + NQNO 40 ng/mL
Source text: (§1) Four Vibrio harveyi strains were used in this study: a wild-type BB7 (naturally found in the Baltic Sea) and three genetically modified strains, namely BB7M (obtained by the introduction of pAB1273 plasmid containing the genes mucA and mucB to enhance the error-prone DNA repair), BB7X (hypersensitive to UV radiation after genetic modification with Tn5TpMCS), and BB7XM (containing the two abovementioned modifications). These strains were kindly provided by Prof. G. Węgrzyn (Department of Molecular Biology, University of Gdańsk, Poland).
(§2) It causes point mutations at the genome as it induces G:C → A:T transitions in Vibrio harveyi strains and in other bacteria such as Escherichia coli and S. typhimurium. […] Next, its working solution was prepared in sterile water, being 40 ng/mL its final concentration.
(§3) Procedure followed in the V. harveyi antimutagenicity assay was similar to the mutagenicity method described before. […] The results were expressed as the inhibition percentage of mutagenic effect, which was calculated with the formula: 100 − [(R 1/R 2) × 100], where R 1 is the number of revertants per plate in the presence of both mutagen and tested substance, and R 2 is the number of revertants per plate in the presence of mutagen. […] S. typhimurium antimutagenicity assay was based on similar assumptions as the V. harveyi antimutagenicity test. In this case, the chemopreventive activity was determined at two concentrations of a tested compounds and a standard mutagen, i.e., 40 and 500 ng/mL.

rat liver microsomes = experiment: Microsomal stability assay; type: in vitro ADME; conditions: rat liver microsomes, 1 h of incubation
Procedure: Compounds 1 and 3 were studied in a biotransformation assay using rat liver microsomes following procedures described previously. The reagents used in this assay were levallorphan (internal standard) and NADPH-regenerating system, which contained phosphate buffer (pH 7.4), NADP^+, glucose-6-phosphate, and glucose-6-phosphate dehydrogenase. The final protein concentration in the assay was 0.4 mg/mL. Compounds 1 and 3 were tested at a final concentration of 20 μM.
The amount of a parental compound remaining in a solution after biotransformation was monitored using LC-MS/MS as described previously in “Cunninghamella Biotransformation Assay.” Graphs representing ln of percentage of parent compound remaining versus incubation time were drawn to calculate in vitro half-time (t1/2) from the slope of linear regression. To obtain intrinsic clearance (Clint) of a tested compound in rat liver microsomal assay, t1/2 previously calculated was substituted at the equation Clint = [(Vmic/Pmic) × 0.693/t1/2], being Vmic and Pmic the volume of incubation in microliters and the amount of incubated protein in milligrams, respectively.
Agilent 1100 HPLC system (Agilent Technologies, Waldbronn, Germany) equipped with a Xbridge™ C18 analytical column (2.1 × 30 mm, […]; Waters, Dublin, Ireland) was used in the chromatographic separation of LC-MS/MS analysis. An elution gradient of acetonitrile and water, with 0.1% of formic acid, was used as a mobile phase. MS spectra were taken at Applied Biosystems MDS Sciex API 200 triple quadrupole mass analyzer (Concord, Ontario, Canada) with an electrospray ionization (ESI) interface between HPLC and MS.

Vibrio harveyi BB7M [2] = conditions: 40 ng/mL
Procedure: (§4) From them, 0.2 mM working solutions were prepared by dilution with water. […] Working solutions were prepared by 1:100 dilution of stock solution in water, and final compound concentration assayed was 40 ng/mL.
as §1, §2
(§5) To perform the V. harveyi mutagenicity test, 10 μL of a working solution of the tested compound (100 μg/mL) were added to V. harveyi bacterial culture (OD600 = 0.1) in NaCl-containing BOSS liquid medium, being 40 ng/mL the final concentration of the tested compound. […] Then, an inoculum containing 5 × 10^6 cells was added to solid BOSS agar plate supplemented with neomycin sulfate at a final concentration of 100 μg/mL. Samples were left incubating 48 h at 30 °C, and revertant colonies were counted manually.

Vibrio harveyi BB7 [3] = conditions: BB7, 40 ng/mL
Procedure: as §4, §1, §2, §5

Vibrio harveyi BB7X [4] = conditions: 40 ng/mL
Procedure: as §4, §1, §2, §5

Vibrio harveyi BB7M [5] = experiment: Vibrio harveyi antimutagenicity assay against NQNO, BB7M; type: cell-based; conditions: compound 40 ng/mL + NQNO 40 ng/mL
Source text: as §1, §2, §3

Vibrio harveyi BB7 [6] = experiment: Vibrio harveyi antimutagenicity assay against NQNO, BB7; type: cell-based
Source text: as §1, §2, §3

[7] = test system: Salmonella typhimurium TA100; experiment: Ames mutagenicity test; type: cell-based
Procedure: From them, 0.2 mM working solutions were prepared by dilution with water. […]
(§6) In the Ames test, Salmonella typhimurium TA100 strain was used. This strain has a base-pair substitution that can be reverted by mutations at GC pairs. In addition, it contains mutations at uvrB-bio and rfa genes to eliminate excision repair mechanisms and to make the bacteria more permeable to chemicals, respectively. Finally, TA100 also includes pKM101 plasmid, which enhances both chemical and UV-induced mutagenesis via an increase in the error-prone recombinational DNA repair pathway. TA100 strain of S. typhimurium was provided by Dr. T. Nohmi (Division of Genetics and Mutagenesis, National Institute of Hygienic Sciences, Tokyo, Japan). V. harveyi and S. typhimurium bacterial cultures were maintained at 30 and 37 °C, respectively.
It causes point mutations at the genome as it induces G:C → A:T transitions in Vibrio harveyi strains and in other bacteria such as Escherichia coli and S. typhimurium. […]
S. typhimurium was cultivated in a fresh medium 12 h prior to a test. To perform mutagenicity assay, 100 μL of an overnight culture (containing approx. 1 × 10^8 to 2 × 10^8 bacteria) were inoculated along with 50 μL of a tested compound in 2 mL of top agar supplemented with traces of histidine and of biotin. Then the mixture was added over the surface of GM agar plates and was left incubating 48 h at 37 °C. Afterwards, the colonies were counted manually.

[8] = test system: Salmonella typhimurium TA100; experiment: S. typhimurium antimutagenicity assay against NQNO; type: cell-based; conditions: for Number of revertants per plate, Mean ± SD: antimutagenicity, NQNO line = NQNO as a single compound
Source text: as §6, §2, §3

Vibrio harveyi BB7XM [9] = experiment: Vibrio harveyi mutagenicity assay, BB7XM; type: cell-based; conditions: 40 ng/mL
Procedure: as §4, §1, §2, §5

Vibrio harveyi BB7XM [10] = type: cell-based; conditions: compound 40 ng/mL + NQNO 40 ng/mL
Source text: as §1, §2, §3

[11] = antimutagenicity, NQNO line = NQNO as a single compound
[12] = TA100, 500 ng/mL (NQNO control stated as 40 ng/mL in method)
[13] = TA100, compound and NQNO 40 ng/mL
[14] = TA100, compound and NQNO 500 ng/mL

COc1nc2c(c(=O)n(C)c(=O)n2C)n1CC(=O)O [Compound 1, 2-(8-methoxy-1,3-dimethyl-2,6-dioxo-purin-7-yl)acetic acid]
Number of revertants per plate, Mean ± SD (Vibrio harveyi BB7X [1]; [11]): 28 ± 7
% inhibition of NQNO mutagenicity (Vibrio harveyi BB7X [1]): 74%
metabolic stability in microsomal biotransformation (in words) (rat liver microsomes): metabolically stable
MI (mutagenicity index) (Vibrio harveyi BB7M [2]; mutagenic if MI above 2.0): 1.2
Number of revertants per plate, Mean ± SD (Vibrio harveyi BB7M [2]; mutagenicity): 33 ± 8
MI (mutagenicity index) (Vibrio harveyi BB7 [3]; mutagenic if MI above 2.0): 0.9
Number of revertants per plate, Mean ± SD (Vibrio harveyi BB7 [3]; mutagenicity): 12 ± 2
MI (mutagenicity index) (Vibrio harveyi BB7X [4]; mutagenic if MI above 2.0): 1.4
Number of revertants per plate, Mean ± SD (Vibrio harveyi BB7X [4]; mutagenicity): 30 ± 1
Number of revertants per plate, Mean ± SD (Vibrio harveyi BB7M [5]; [11]): 60 ± 10
% inhibition of NQNO mutagenicity (Vibrio harveyi BB7M [5]): 39%
% inhibition of NQNO mutagenicity (Vibrio harveyi BB7 [6]; BB7, compound 40 ng/mL + NQNO 40 ng/mL): 20%
Number of revertants per plate, Mean ± SD (Vibrio harveyi BB7 [6]; antimutagenicity, BB7, compound 40 ng/mL + NQNO 40 ng/mL, NQNO line = NQNO as a single compound): 44 ± 6
chemopreventive (antimutagenic) effect, class (Vibrio harveyi BB7 [6]; wild BB7 strain, against NQNO): moderate or a close to moderate
Number of revertants per plate, Mean ± SD ([7]; TA100, 40 ng/mL): 12 ± 5
MI (mutagenicity index) ([7]; TA100, 40 ng/mL, mutagenic if MI >2.0): 0.3
MI (mutagenicity index) [7, 12]: 0.6
Number of revertants per plate, Mean ± SD [7, 12]: 16 ± 3
% inhibition of NQNO mutagenicity [8, 13]: 88%
% inhibition of NQNO mutagenicity [8, 14]: 95%
Number of revertants per plate, Mean ± SD [8, 13]: 10 ± 3
Number of revertants per plate, Mean ± SD [8, 14]: 5 ± 3
MI (mutagenicity index) (Vibrio harveyi BB7XM [9]; mutagenic if MI above 2.0): 1.1
Number of revertants per plate, Mean ± SD (Vibrio harveyi BB7XM [9]; mutagenicity): 37 ± 11
Number of revertants per plate, Mean ± SD (Vibrio harveyi BB7XM [10]; [11]): 69 ± 10
% inhibition of NQNO mutagenicity (Vibrio harveyi BB7XM [10]): 10%
